Data set [1] has as its target recombinant P. falciparum PMX (Plasmodium falciparum, UniProt Q8IAS0). Briefly: Recombinant P. falciparum PMX inhibition assay (fluorogenic substrate Rh2N). The format is biochemical. How it is done:
The fluorescence of this peptide is quenched by the spatial proximity of the DABCYL/EDANS groups in the uncleaved peptide and is increased upon cleavage at the internal F–I bond. […] Control wells contained no inhibitor, and the plate was blanked against the substrate only in DB. […] All experiments were performed in duplicate.

Data set [2] deals with PMIV (Plasmodium falciparum, UniProt Q8IM16). In words: FRET-based PMIV inhibition assay. Type of data set: biochemical, P. falciparum. The procedure:
(§1) A fluorescence resonance energy transfer (FRET)-based assay was performed to assess the ability of the compounds to inhibit PMIV, CatD, and BACE1. Serial dilutions of test compounds were dispensed in a white 96-well plate. […] The mixture was incubated for 20 min at 37 °C. […] IC50 values were calculated with GraphPad Prism 8.0 using the nonlinear regression, variable slope (four parameters). Compounds were tested in triplicate.

In data set [3] the target is cathepsin D (CatD) (Homo sapiens, UniProt P07339). Briefly: FRET-based CatD inhibition assay (selectivity counter screen). Type of data set: biochemical. The procedure: as §1
A general note: The purpose of a counterscreen is to sort out artefacts and off-target activity.

Data set [4] has as its target BACE1 (Homo sapiens, UniProt P56817). Briefly: FRET-based BACE1 inhibition assay (selectivity counter screen). Type of data set: biochemical. The procedure: as §1
The nature of data set [5]: Liver microsomal metabolic stability. Type of data set: in vitro ADME, mouse. The following applies: pooled liver microsomes, pH 7.4, mouse liver microsomes, 5 μM; for microsomal CLint at 1 h, 5 μM: read-out: microsomal stability CL(int). The procedure: Microsomal stability assays are performed as described elsewhere.[41] Test compounds and pooled mouse liver microsomes are incubated in potassium phosphate buffer in the presence of the cofactor NADPH at 37 °C. Reaction mixtures (700 μL) contain a final concentration of 5 μM test compound, 0.05% DMSO, 0.5 mg/mL microsomes, and ∼0.7–0.9 mM NADPH in 100 mM potassium phosphate buffer at pH 7.4. Reactions are terminated by the addition of 100 μL of the reaction mixture to 900 μL of acetonitrile after 0, 5, 15, 30, 45, and 60 min of incubation. Samples were centrifuged, and the resultant supernatant was analyzed by ultra-performance liquid chromatography–tandem mass spectrometry (UPLC-MS/MS). The amount of remaining compound is calculated and compared to the initial amount of test compound (zero time point). Verapamil is used as a positive control, and samples prepared without cofactor NADPH are used as a negative control (0 and 60 min). The in vitro metabolic stability parameters (half-life value (t1/2) and intrinsic clearance value (Clint)) are calculated from the slope of the Ln of concentration remaining vs the time curve.
(In general: Liver microsomes are vesicles of endoplasmic reticulum, rich in cytochrome P450 enzymes.)

Data set [6] can be described thus: Plasma protein binding (rapid equilibrium dialysis). The format is in vitro ADME. Particulars: pH 7.4, mouse plasma, 2 h at 37 °C. How it is done: Plasma protein binding was performed with rapid equilibrium dialysis (RED) device inserts containing a dialysis membrane with a molecular weight cut-off of 8000 Daltons. Inserts were placed in the single-use RED plate without prior preparation.
The test compound at a concentration of 5 μM was added to mouse plasma and dialyzed against phosphate-buffered saline (PBS, pH 7.4) for 2 h at 37 °C. Propranolol hydrochloride was used as a positive control (high PPB), and fluconazole was used as negative control (low PPB). After dialysis, the drug concentration in the buffer and plasma compartments was quantified by liquid chromatography and tandem mass spectrometry (LC-MS/MS) analysis.
For orientation: In equilibrium dialysis only unbound substance equilibrates across the membrane.

For data set [7], the system named is P. falciparum Pf3D7^0087/N9. Briefly: In vivo efficacy against P. falciparum in the TAD PfalcHuMouse model. Particulars: three times a day for 4 days at 40 mg/kg, oral; 40 mg/kg. How it is done:
Therapeutic efficacy studies were performed at TAD using a standardized humanized mouse model of P. falciparum malaria[31] with modifications.[34] […] The volume of injections was 1 and 0.7 mL for i.p. or i.v. inoculation, respectively.
The inoculum was obtained from peripheral blood of CO2-euthanized donor mice harboring 5–10% parasitemia.
Before drug administration, each infected mouse was randomly assigned to its corresponding treatment. […] The treatment was administered by oral gavage with 20G straight reusable feeding needles (Fine Science Tools GmbH) at 10 mL·kgbodyweight^–1 unless otherwise stated.
Parasitemia was measured in serial 2 μL of samples of tail blood by flow cytometry and expressed as the % of parasitized erythrocytes with respect to the total erythrocytes in circulation.
The clearance of parasitized erythrocytes from the peripheral blood of mice was assessed by measuring the parasite reduction ratio (PRR) calculated as the ratio between parasitemia at Day n + 2 divided by parasitemia at Day n for each individual of the study.
The parasiticidal effect of drugs in vivo was assessed by measuring the day of recrudescence (DoR) as described.[34] In short, DoR was defined as the day at which parasitemia after drug treatment reached the % parasitemia at treatment inception. Drug-treated mice were deemed cured if there was no detectable parasitemia 60 days after treatment.

Where [8] appears, read: recombinant PMX, read-out: PMX, nM (IC50).
Where [9] appears, read: Table 3, read-out: PMX, nM (as listed in Table 3).
The mark [10] stands for this setting: Table 3, read-out: PMIV, nM (as listed in Table 3).

“Also recorded” adds a separate entry of the source. Where two headings read alike, the source gives them in different places.

BACE1, sequence (P56817 46-501): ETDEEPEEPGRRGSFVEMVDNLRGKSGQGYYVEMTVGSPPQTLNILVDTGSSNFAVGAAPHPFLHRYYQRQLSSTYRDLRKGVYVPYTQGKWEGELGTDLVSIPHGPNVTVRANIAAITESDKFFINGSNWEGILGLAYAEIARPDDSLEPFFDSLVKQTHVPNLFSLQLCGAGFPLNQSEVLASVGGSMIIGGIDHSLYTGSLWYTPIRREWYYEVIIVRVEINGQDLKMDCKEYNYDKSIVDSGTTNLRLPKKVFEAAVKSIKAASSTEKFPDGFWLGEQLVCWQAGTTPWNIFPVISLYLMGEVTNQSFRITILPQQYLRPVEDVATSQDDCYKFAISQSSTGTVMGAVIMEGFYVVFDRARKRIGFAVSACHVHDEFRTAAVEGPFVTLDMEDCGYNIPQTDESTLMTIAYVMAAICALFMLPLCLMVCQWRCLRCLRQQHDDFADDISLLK
cathepsin D (CatD), sequence (P07339 65-412): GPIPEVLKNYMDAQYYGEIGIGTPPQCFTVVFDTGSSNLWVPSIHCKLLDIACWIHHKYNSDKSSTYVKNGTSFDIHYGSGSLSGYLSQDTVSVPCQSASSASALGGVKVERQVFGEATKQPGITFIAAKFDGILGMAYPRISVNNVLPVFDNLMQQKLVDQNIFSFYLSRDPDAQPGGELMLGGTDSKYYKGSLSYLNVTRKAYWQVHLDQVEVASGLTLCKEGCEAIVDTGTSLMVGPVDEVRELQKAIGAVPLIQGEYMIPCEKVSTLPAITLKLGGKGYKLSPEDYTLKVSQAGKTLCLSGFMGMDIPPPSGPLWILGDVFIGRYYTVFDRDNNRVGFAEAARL
recombinant P. falciparum PMX, sequence (Q8IAS0 222-573): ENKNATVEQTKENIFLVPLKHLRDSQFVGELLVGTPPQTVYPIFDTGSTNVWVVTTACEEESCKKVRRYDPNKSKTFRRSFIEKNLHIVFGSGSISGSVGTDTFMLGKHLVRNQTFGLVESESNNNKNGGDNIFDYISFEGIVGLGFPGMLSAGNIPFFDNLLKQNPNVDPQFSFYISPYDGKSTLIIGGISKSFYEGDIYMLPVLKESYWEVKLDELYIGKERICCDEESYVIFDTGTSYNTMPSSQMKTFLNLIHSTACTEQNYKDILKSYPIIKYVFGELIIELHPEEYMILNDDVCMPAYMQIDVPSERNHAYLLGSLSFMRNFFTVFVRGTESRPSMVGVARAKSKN
PMIV, sequence (Q8IM16 122-449): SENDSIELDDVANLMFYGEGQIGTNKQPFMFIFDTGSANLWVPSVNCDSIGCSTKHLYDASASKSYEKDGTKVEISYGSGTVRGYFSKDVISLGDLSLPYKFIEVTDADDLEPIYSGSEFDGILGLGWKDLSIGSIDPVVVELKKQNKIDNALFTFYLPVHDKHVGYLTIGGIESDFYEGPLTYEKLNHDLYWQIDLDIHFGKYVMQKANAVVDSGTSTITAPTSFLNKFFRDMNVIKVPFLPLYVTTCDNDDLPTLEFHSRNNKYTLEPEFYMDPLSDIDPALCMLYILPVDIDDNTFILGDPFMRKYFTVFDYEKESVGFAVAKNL

On to `COc1cccc(C(C)(C)NC[C@@H](O)[C@@H]2Cc3cccc(c3)OCCCCN(C)C(=O)c3cccc(c3)C(=O)N2)c1` [7c, (S)-4-((R)-1-Hydroxy-2-((2-(3-methoxyphenyl)propan-2-yl)amino)ethyl)-12-methyl-7-oxa-3,12-diaza-1,6(1,3)-dibenzenacyclotridecaphane-2,13-dione], for which the IC50 in data set [1] turned out to be 11.2 ± 0.7 nM; in data set [1] (setting [8]) it was 5.3 ± 3 nM; in data set [2], 510 ± 30 nM; in data set [2] (read-out: PMIV, nM (IC50)), 170 ± 20 nM; in data set [3], 320 ± 20 nM; in data set [4] it was 1030 ± 50 nM. Also, in data set [5], the half-life at 1 h, 5 μM is 16.9 min. Besides, the microsomal CLint at 1 h, 5 μM in data set [5] worked out at 81.9 µL/min/mg. The fraction unbound at 2 h, 5 µM in data set [6] was 0.0351.
As for `CCCN(CCC)C(=O)c1cccc(C(=O)N[C@@H](Cc2ccccc2)[C@H](O)CNC(C)(C)c2cccc(OC)c2)c1` [6a], the IC50 in data set [1] (setting [8]) came to 6.2 ± 0.3 nM. Further, in data set [5], the half-life at 1 h, 5 μM came out at 6.4 min and the microsomal CLint at 1 h, 5 μM is 216 µL/min/mg. This compound also showed a fraction unbound at 2 h, 5 µM in data set [6] of 0.009.
Regarding `COc1cccc(C(C)(C)NC[C@@H](O)[C@@H]2Cc3cccc(c3)OCCCCNC(=O)c3cccc(c3)C(=O)N2)c1` [7b, (S)-4-((R)-1-Hydroxy-2-((2-(3-methoxyphenyl)propan-2-yl)amino)ethyl)-7-oxa-3,12-diaza-1,6(1,3)-dibenzenacyclotridecaphane-2,13-dione], the IC50 in data set [1] was 4.1 ± 0.3 nM; in data set [1] (setting [8]), 11.2 ± 0.7 nM; in data set [2] it was 60 ± 3 nM; in data set [2] (read-out: PMIV, nM (IC50)), 510 ± 30 nM; in data set [3], 650 ± 30 nM; in data set [4], 910 ± 40 nM. In data set [5], this compound came in with a half-life at 1 h, 5 μM of 31.3 min. Moreover, in data set [5], the microsomal CLint at 1 h, 5 μM is 44.3 µL/min/mg. In data set [6], this compound had a fraction unbound at 2 h, 5 µM of 0.0274.
For the compound `COc1cccc(C(C)(C)NC[C@@H](O)[C@@H]2Cc3cccc(c3)OCCCCN(CCN(C)C)C(=O)c3cccc(c3)C(=O)N2)c1` [7f, (S)-12-(2-(Dimethylamino)ethyl)-4-((R)-1-hydroxy-2-((2-(3-methoxyphenyl)propan-2-yl)amino)ethyl)-7-oxa-3,12-diaza-1,6(1,3)-dibenzenacyclotridecaphane-2,13-dione], the IC50 in data set [1] amounted to 2.5 ± 0.2 nM; in data set [1] (setting [8]), 16.7 ± 1.5 nM; in data set [2], 40 nM; in data set [2] (read-out: PMIV, nM (IC50)), 1730 ± 90 nM; in data set [3], 6800 ± 340 nM; in data set [4], 52400 ± 1600 nM. In addition, in data set [1] (compared to analogue 7a), the “reduction of PMX inhibitory potency” value is listed as 4 fold. Moreover, in data set [5], the half-life at 5 μM is above 120 min. In addition, the fraction unbound at 2 h, 5 µM in data set [6] was 0.0695. Further, the “effect on parasite burden” value in data set [7] is recorded as “only a weak effect on parasite burden; also recorded: measurable reduction in parasitemia”.
`CCCN1CCOc2cccc(c2)C[C@@H]([C@H](O)CNC(C)(C)c2cccc(OC)c2)NC(=O)c2cccc(c2)C1=O` [7h]: the IC50 in data set [1] (setting [9]) was found to be 6.8 ± 0.59 nM; in data set [1] (setting [8]) it was 6.8 ± 0.59 nM; in data set [2] (setting [10]) it was 200 nM; in data set [2] (read-out: PMIV, nM (IC50)), 200 nM; in data set [3], 600 nM; in data set [4] it was 1850 ± 90 nM. This compound displayed a half-life at 1 h, 5 μM in data set [5] of 13.9 min. Moreover, in data set [5], the microsomal CLint at 1 h, 5 μM turned out to be 99.8 µL/min/mg. This compound had a fraction unbound at 2 h, 5 µM in data set [6] of 0.0384.
Consider `COc1cccc(C(C)(C)NC[C@@H](O)[C@@H]2Cc3cccc(c3)OCCCCN(CCC(F)(F)F)C(=O)c3cccc(c3)C(=O)N2)c1` [7d, (S)-4-((R)-1-Hydroxy-2-((2-(3-methoxyphenyl)propan-2-yl)amino)ethyl)-12-(3,3,3-trifluoropropyl)-7-oxa-3,12-diaza-1,6(1,3)-dibenzenacyclotridecaphane-2,13-dione], for which the IC50 was 5.3 ± 3 nM in data set [1]; 8.6 ± 2.4 nM in data set [1] (setting [8]); 170 ± 20 nM in data set [2]; 61 ± 4 nM in data set [2] (read-out: PMIV, nM (IC50)); 230 ± 20 nM in data set [3]; 2100 ± 100 nM in data set [4]. The compound also gave a half-life at 1 h, 5 μM in data set [5] of 20.4 min. In addition, the microsomal CLint at 1 h, 5 μM in data set [5] is 67.9 µL/min/mg. In data set [6], this compound gave a fraction unbound at 2 h, 5 µM of 0.0125.
For the compound `CCCN1CCCCCOc2cccc(c2)C[C@@H]([C@H](O)CNC(C)(C)c2cccc(OC)c2)NC(=O)c2cccc(c2)C1=O` [7g, (S)-4-((R)-1-Hydroxy-2-((2-(3-methoxyphenyl)propan-2-yl)amino)ethyl)-13-propyl-7-oxa-3,13-diaza-1,6(1,3)-dibenzenacyclotetradecaphane-2,14-dione], the IC50 in data set [1] (setting [9]) was 6.9 ± 0.49 nM; in data set [1] (setting [8]) it was 6.9 ± 0.49 nM; in data set [2] (setting [10]), 190 nM; in data set [2] (read-out: PMIV, nM (IC50)), 190 nM; in data set [3] it was 1200 nM; in data set [4] it was 6000 ± 300 nM. The compound further gave a half-life at 1 h, 5 μM in data set [5] of 7.64 min. Further, in data set [5], the microsomal CLint at 1 h, 5 μM was determined as 181 µL/min/mg. In data set [6], the fraction unbound at 2 h, 5 µM was 0.0079.
With `CCCN1CCOCCc2cccc(c2)C[C@@H]([C@H](O)CNC(C)(C)c2cccc(OC)c2)NC(=O)c2cccc(c2)C1=O` [7i, (S)-4-((R)-1-Hydroxy-2-((2-(3-methoxyphenyl)propan-2-yl)amino)ethyl)-12-propyl-9-oxa-3,12-diaza-1,6(1,3)-dibenzenacyclotridecaphane-2,13-dione], the IC50 in data set [1] (setting [9]) stood at 4.6 ± 0.07 nM; in data set [1] (setting [8]), 4.6 ± 0.07 nM; in data set [2] (setting [10]), 81 ± 4 nM; in data set [2] (read-out: PMIV, nM (IC50)) it was 81 ± 4 nM; in data set [3], 1650 ± 80 nM; in data set [4], 22700 ± 1100 nM. Further, the half-life at 1 h, 5 μM in data set [5] was 8.39 min. Also, the microsomal CLint at 1 h, 5 μM in data set [5] was determined as 165 µL/min/mg. In data set [6], this compound had a fraction unbound at 2 h, 5 µM of 0.0287.
On to `COc1cccc(C(C)(C)NC[C@@H](O)[C@@H]2Cc3cccc(c3)OCCCCN(CC(C)(C)C)C(=O)c3cccc(c3)C(=O)N2)c1` [7e], for which the IC50 in data set [1] is 8.6 ± 2.4 nM; in data set [1] (setting [8]) it was 2.5 ± 0.2 nM; in data set [2], 61 ± 4 nM; in data set [2] (read-out: PMIV, nM (IC50)), 40 nM; in data set [3] it was 630 nM; in data set [4], 1900 ± 100 nM. Further, the half-life at 1 h, 5 μM in data set [5] was determined as 13.7 min. Also, in data set [5], the microsomal CLint at 1 h, 5 μM came out at 101 µL/min/mg. This compound also gave a fraction unbound at 2 h, 5 µM in data set [6] of 0.0035.

By half-life is commonly meant how long it takes for the measured level to halve. High values mean slow loss, low ones fast loss. By fraction unbound is commonly meant free concentration divided by total concentration.

Source of the values: article PMC10424242, “Macrocyclic Peptidomimetic Plasmepsin X Inhibitors with Potent In Vitro and In Vivo Antimalarial Activity” (Journal of Medicinal Chemistry, 2023).
